The record followed here is US5424456A, “N-arylalkylderivatives of 2-aminomethyl-2,3-dihydro-1,4-benzodioxine and the process of preparation thereof” (Vyzkumny Ustav Pro Farmacii A Biochemii s.p., priority 1991, dated 1995).

Each structure is given as a SMILES string. Read-outs that look alike come from different tables or passages of the source.

The target of assay [1] is T1, calcium channel (Rattus norvegicus, UniProt P22002).
T1 construct: helically cut rat aortic strip; from tissue; host or cells: rat aorta (helically cut strip)
T1 sequence (P22002 whole entry): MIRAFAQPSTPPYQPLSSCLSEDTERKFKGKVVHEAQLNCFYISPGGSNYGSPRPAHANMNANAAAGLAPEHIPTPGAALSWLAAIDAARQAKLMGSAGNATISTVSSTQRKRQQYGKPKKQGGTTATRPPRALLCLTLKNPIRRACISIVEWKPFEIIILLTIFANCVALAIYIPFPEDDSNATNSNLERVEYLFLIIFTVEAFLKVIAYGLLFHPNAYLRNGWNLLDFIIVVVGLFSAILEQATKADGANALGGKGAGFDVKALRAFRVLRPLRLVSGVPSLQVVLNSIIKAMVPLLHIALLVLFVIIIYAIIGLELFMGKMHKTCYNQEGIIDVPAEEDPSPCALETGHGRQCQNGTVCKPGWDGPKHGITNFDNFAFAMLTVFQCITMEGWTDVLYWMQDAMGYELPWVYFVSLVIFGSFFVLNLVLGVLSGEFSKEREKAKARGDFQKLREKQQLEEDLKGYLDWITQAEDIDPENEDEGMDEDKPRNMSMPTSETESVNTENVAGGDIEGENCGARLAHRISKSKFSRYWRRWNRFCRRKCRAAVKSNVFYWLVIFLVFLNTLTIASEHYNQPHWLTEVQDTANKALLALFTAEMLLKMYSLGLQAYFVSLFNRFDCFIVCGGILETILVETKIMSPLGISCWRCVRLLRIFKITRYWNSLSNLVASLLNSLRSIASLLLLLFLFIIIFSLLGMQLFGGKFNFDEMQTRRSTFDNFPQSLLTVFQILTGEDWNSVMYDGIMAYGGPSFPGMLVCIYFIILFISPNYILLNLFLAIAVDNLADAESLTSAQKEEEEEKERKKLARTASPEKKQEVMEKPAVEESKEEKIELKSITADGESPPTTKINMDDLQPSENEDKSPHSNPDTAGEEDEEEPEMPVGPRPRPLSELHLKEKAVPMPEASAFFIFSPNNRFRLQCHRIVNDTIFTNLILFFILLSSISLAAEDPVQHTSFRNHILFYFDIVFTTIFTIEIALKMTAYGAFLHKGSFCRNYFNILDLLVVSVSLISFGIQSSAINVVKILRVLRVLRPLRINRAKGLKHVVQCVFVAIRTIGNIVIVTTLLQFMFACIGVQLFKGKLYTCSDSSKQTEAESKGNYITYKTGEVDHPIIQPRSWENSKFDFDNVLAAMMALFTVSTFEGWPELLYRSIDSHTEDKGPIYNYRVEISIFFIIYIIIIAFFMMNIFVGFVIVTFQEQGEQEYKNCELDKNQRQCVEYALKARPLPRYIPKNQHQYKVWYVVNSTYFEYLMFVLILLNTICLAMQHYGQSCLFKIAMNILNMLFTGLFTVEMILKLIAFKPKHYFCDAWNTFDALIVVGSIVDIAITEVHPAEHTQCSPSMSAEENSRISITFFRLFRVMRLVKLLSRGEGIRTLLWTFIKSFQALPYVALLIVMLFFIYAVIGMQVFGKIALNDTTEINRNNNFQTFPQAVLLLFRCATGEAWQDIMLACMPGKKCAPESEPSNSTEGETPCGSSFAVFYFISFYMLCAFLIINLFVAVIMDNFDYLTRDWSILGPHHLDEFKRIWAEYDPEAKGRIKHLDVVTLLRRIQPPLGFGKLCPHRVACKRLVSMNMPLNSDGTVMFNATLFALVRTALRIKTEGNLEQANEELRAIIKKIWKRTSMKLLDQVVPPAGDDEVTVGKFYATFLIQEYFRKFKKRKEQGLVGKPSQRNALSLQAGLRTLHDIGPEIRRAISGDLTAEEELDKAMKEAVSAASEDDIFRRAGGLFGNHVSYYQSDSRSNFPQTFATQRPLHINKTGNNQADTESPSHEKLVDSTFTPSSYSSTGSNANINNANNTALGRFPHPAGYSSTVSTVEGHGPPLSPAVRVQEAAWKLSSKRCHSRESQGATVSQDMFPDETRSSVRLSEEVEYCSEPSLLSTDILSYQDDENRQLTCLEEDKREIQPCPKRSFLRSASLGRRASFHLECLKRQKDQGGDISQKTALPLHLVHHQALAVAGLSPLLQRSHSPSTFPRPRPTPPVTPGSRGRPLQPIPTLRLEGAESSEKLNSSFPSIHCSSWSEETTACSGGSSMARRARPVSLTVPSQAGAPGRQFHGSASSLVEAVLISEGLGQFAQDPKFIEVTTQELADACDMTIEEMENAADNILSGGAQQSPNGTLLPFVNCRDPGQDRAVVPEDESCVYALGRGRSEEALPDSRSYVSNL
T1 sequence (P54290 25-1091 partner): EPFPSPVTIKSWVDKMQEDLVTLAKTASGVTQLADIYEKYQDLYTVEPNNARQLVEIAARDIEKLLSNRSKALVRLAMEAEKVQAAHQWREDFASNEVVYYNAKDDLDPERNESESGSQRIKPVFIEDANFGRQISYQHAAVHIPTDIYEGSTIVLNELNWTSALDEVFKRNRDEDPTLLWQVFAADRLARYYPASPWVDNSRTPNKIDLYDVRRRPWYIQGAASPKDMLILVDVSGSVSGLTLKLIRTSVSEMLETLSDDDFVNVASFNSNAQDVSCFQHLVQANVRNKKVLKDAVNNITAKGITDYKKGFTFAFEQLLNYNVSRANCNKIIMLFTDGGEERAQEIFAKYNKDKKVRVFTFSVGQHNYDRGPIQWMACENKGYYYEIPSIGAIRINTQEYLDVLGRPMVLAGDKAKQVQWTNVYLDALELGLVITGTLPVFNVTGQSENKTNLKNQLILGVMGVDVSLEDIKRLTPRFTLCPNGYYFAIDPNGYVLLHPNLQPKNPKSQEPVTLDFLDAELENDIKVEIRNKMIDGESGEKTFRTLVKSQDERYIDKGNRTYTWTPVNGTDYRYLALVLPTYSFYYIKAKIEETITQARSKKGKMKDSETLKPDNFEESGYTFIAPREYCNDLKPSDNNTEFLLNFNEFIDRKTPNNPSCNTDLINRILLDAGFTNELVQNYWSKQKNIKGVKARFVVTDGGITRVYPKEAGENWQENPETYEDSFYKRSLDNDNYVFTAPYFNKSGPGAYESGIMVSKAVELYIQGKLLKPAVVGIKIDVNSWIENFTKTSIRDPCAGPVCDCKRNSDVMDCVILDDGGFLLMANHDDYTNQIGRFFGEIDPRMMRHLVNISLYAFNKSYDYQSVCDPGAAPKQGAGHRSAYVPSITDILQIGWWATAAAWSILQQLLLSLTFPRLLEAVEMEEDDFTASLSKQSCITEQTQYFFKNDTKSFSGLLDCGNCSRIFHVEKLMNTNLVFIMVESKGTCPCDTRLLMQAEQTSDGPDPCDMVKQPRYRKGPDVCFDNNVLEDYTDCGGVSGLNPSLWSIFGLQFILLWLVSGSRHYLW
Description: Calcium channel blocking activity, K+ depolarization-induced contraction of helically cut rat aortic strip. Particulars: Krebs-Henselheit solution, 37° C., cumulative doses, read-out: IC50 (50% decrease of contraction of the aortic strip). As for the experimental part: The calcium channel blocking activity of the compounds was tested using a helically cut rat aortic strip in Krebs-Henselheit solution at 37° C., bubbled with a mixture of 95% O2 and 5% CO2. The isometrically registered contractions were induced by K^(+). depolarization. The test compounds were applied in a cumulative doses and the vasodilating activity thereof was expressed in calculated concentration of the test compound, causing 50% decrease of contraction of the aortic strip (IC50).

In assay [2] the test system is rat peripheral venous thrombosis. Description: Antithrombotic activity, rat peripheral venous thrombosis in closed abdominal part of vena cava. It counts as in vivo. The conditions noted are these: rats, read-out: statistically significant effective dose (mass of thrombi). As for the experimental part: The antithrombotic activity of the test compounds was established using the model of rat peripheral venous thrombosis in a closed abdominal part of vena cava. The thrombus was induced by intravenous administration of hypotonic solution of sodium chloride. The thrombus was freed 10 minutes after induction and weighted. The mass of thrombi in control animals was compared to the mass of thrombi of animals administered by the test compound. The statistically significant effective dose for compound VUFB 17951 was 0.5 mg/kg intravenously and 5 mg/kg orally and for the compound VUFB 17959 0.25 mg/kg and 1.0 mg/kg, respectively. The corresponding dose of a standard (Cilostazol, generic name, Merck index, 11th Edition, 2277) was 25 mg/kg orally.

Assay [3] has as its system intraocular pressure. Description: Effect on the intraocular pressure. It counts as in vivo, rabbit. The conditions noted are these: rabbits, topical intraocular administration.
Assay [4] relates to urinary bladder sphincter. Description: Effect on the opening pressure of the urinary bladder sphincter. It counts as in vivo, rat. Particulars: rats, compared with prazosin or terazosin; for lowering of the opening pressure of the urinary bladder sphincter: corresponding doses.

Regarding `COc1ccc(C(C#N)(CCCNCC2COc3ccccc3O2)C(C)C)cc1OC` (racemic) [VUFB 17951, 5-(2,3-Dihydro-1,4-benzodioxin-2-ylmethylamino)-2-(3,4-dimethoxyphenyl)-2-isopropyl valeronitrile], the IC50 in assay [1] is 18 µM. The minimal effective dose in assay [2] (iv, intravenously) is 0.5 mg/kg. Further, the minimal effective dose in assay [2] (po, orally) turned out to be 5 mg/kg. Also, in assay [3], the “lowering of the intraocular pressure” value is “lowered significantly the intraocular pressure”. Besides, in assay [4], the “duration of action on opening pressure of the urinary bladder sphincter” value is recorded as “longer duration of action” and the “lowering of the opening pressure of the urinary bladder sphincter” value is “lowered the opening pressure of the urinary bladder sphincter of rats in corresponding doses in the same extent as prazosin”.
`Cc1ccccc1C(C#N)(CCCNCC1COc2ccccc2O1)C(C)C` (racemic) [VUFB 17959, 5-(2,3-dihydro-1,4-benzodioxin-2-ylmethylamino)-2-isopropyl-2-(2-methylphenyl) valeronitrile]: in assay [1], the half-inhibitory concentration (IC50) is 16 µM. Moreover, the minimal effective dose was 0.25 mg/kg in assay [2] (iv, intravenously) and 1 mg/kg in assay [2] (po, orally). For the same molecule, the “lowering of the intraocular pressure” value in assay [3] is on record as “lowered significantly the intraocular pressure”. Moreover, the “duration of action on opening pressure of the urinary bladder sphincter” value in assay [4] is on record as “longer duration of action”. Also, the “lowering of the opening pressure of the urinary bladder sphincter” value in assay [4] was “lowered the opening pressure of the urinary bladder sphincter of rats in corresponding doses in the same extent as prazosin”.
